What was measured:
blackgrass = assay: Test B pre/postemergence blackgrass; format: in vivo, Alopecurus myosuroides
Method in brief: (§1)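 Test chemicals in a non-phytotoxic solvent mixture with surfactant were sprayed preemergence onto planted seeds and postemergence onto plants 2 to 18 cm tall (1- to 4-leaf stage). After twelve to sixteen days in a greenhouse, injury was visually rated against untreated controls from 0 (no effect) to 10 (complete control).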

wild oat = assay: Test B pre/postemergence wild oat; format: in vivo, Avena fatua
Method in brief: as §1

rice = assay: Test B flood test rice; format: in vivo, Oryza sativa
Method in brief: (§2)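 Read-out is a visual response score from 0 (no effect) to 10 (complete control), assigned by comparison with untreated controls. Treatment was applied at the 2-leaf stage, and plants stayed in the greenhouse for twelve to sixteen days before scoring.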

smallflower flatsedge = assay: Test B flood test smallflower flatsedge; format: in vivo, Cyperus difformis
Method in brief: as §2

bamyardgrass = assay: Test B flood test barnyardgrass; format: in vivo, Echinochloa crus-galli
Method in brief: as §2

[1] = Preemergence, Rate 62 g/ha, scale of 0 to 10 where 0 is no effect and 10 is complete control
[2] = Preemergence, Rate 250 g/ha, scale of 0 to 10 where 0 is no effect and 10 is complete control
[3] = Preemergence, Rate 500 g/ha, scale of 0 to 10 where 0 is no effect and 10 is complete control
[4] = Rate 62 g/ha, Postemergence, scale 0 to 10 (0 no effect, 10 complete control)
[5] = Rate 125 g/ha, Postemergence, scale of 0 to 10 where 0 is no effect and 10 is complete control
[6] = Rate 250 g/ha, Postemergence, scale of 0 to 10 where 0 is no effect and 10 is complete control
[7] = Rate 500 g/ha, Postemergence, scale 0 to 10, 0 no effect, 10 complete control
[8] = Rate 62 g/ha, headed Pre-emergence (flood test species), scale 0 to 10 (0 no effect, 10 complete control)
[9] = Rate 125 g/ha, Pre-emergence, flood test species, scale 0 to 10 where 0 is no effect and 10 is complete control
[10] = Rate 250 g/ha, Pre-emergence, flood-test species, scale 0 to 10, 0 is no effect, 10 is complete control
[11] = Rate 500 g/ha, Pre-emergence, flood test species, scale 0 to 10 (0 no effect, 10 complete control)
[12] = Postemergence, Rate 125 g/ha, scale 0 to 10, 0 is no effect, 10 is complete control
[13] = Pre-emergence, Rate 1000 g/ha, scale 0 to 10 (0 no effect, 10 complete control)
[14] = Preemergence, Rate 62 g/ha, scale 0 to 10 (0 no effect, 10 complete control)
[15] = Rate 62 g/ha, Postemergence, scale of 0 to 10 where 0 is no effect and 10 is complete control
[16] = Postemergence (flood test), Rate 125 g/ha, scale 0 to 10, 0 is no effect, 10 is complete control
[17] = Rate 62 g/ha, Postemergence (flood test species), scale of 0 to 10 where 0 is no effect and 10 is complete control
[18] = Rate 500 g/ha, listed under Postemergence (flood test species), scale 0 to 10, 0 no effect, 10 complete control

Row | SMILES | Blackgrass plant response rating (blackgrass; [1]) | Blackgrass plant response rating (0 to 10 scale) (blackgrass; Preemergence, Rate 125 g/ha) | Blackgrass plant response rating (blackgrass; [2]) | Blackgrass plant response rating (blackgrass; [3]) | Blackgrass plant response rating (blackgrass; [4]) | Plant response rating, Blackgrass (blackgrass; [6]) | Wild oats plant response rating (wild oat; [1]) | Wild oats plant response rating (0 to 10 scale) (wild oat; Preemergence, Rate 125 g/ha) | Wild oats plant response rating (wild oat; [2]) | Wild oats plant response rating (wild oat; [3]) | Wild oats plant response rating (wild oat; [4]) | Rice plant response rating (rice; [9]) | Rice plant response rating (rice; [10]) | Rice plant response rating (rice; [11]) | S. Flatsedge plant response rating (smallflower flatsedge; [9]) | S. Flatsedge plant response rating (smallflower flatsedge; [10]) | S. Flatsedge plant response rating (smallflower flatsedge; [11]) | Barnyardgrass plant response rating (bamyardgrass; [9]) | Barnyardgrass plant response rating (bamyardgrass; [10]) | Barnyardgrass plant response rating (bamyardgrass; [11]) | also measured
1 | CC(C)n1c(=O)on(C(=O)N(c2ccc(Cl)cc2Cl)C2CCC2)c1=O [Compound 319] | 0 | 0 | 2 | 4 | 0 | 0 | 0 | 0 | 0 | 0 | 0 | 0 | 0 | 0 | 0 | 0 | 0 | 0 | 0 | 2 | Blackgrass plant response rating (blackgrass; [5]): 0; Blackgrass plant response rating (blackgrass; [7]): 3; Wild oats plant response rating (wild oat; [5]): 0; Plant response rating, Wild oats (wild oat; [6]): 0; Rice plant response rating (rice; [8]): 0; S. Flatsedge plant response rating (smallflower flatsedge; [8]): 0; Barnyardgrass plant response rating (bamyardgrass; [8]): 0
2 | C=CCn1c(=O)on(C(=O)N(c2ccc(Cl)cc2)C(C)C2CC2)c1=O (centres unmarked) [Compound 325] | 0 | 1 | 2 | 7 | 0 | 3 | 0 | 0 | 0 | 2 | 0 | 0 | 0 | 0 | 0 | 0 | 0 | 0 | 0 | 0 | Blackgrass plant response rating (blackgrass; [5]): 0; Plant response rating, Blackgrass (blackgrass; [7]): 7; Wild oats plant response rating (wild oat; [5]): 0; Plant response rating, Wild oats (wild oat; [6]): 0; Plant response rating, Wild oats (wild oat; [7]): 4; Rice plant response rating (rice; [8]): 0; S. Flatsedge plant response rating (smallflower flatsedge; [8]): 0; Barnyardgrass plant response rating (bamyardgrass; [8]): 0
3 | CC(C)N(C(=O)n1oc(=O)n(-c2ccc3ccccc3c2)c1=O)c1ccc(Cl)cc1 [Compound 333] | 0 | 0 | 0 | 0 | 0 | 0 | 0 | 0 | 0 | 0 | 0 | 0 | 0 | 0 | 0 | 0 | 0 | 0 | 0 | 0 | Plant response rating, Blackgrass (blackgrass; [12]): 0; Plant response rating, Blackgrass (blackgrass; [7]): 0; Plant response rating, Wild oats (wild oat; [12]): 0; Plant response rating, Wild oats (wild oat; [7]): 0; Rice plant response rating (rice; [13]): 0; S. Flatsedge plant response rating (smallflower flatsedge; [13]): 0; Barnyardgrass plant response rating (bamyardgrass; [13]): 0
4 | Cc1ccc(N(C(=O)n2oc(=O)n(-c3ccc4ccccc4c3)c2=O)C(C)C)cc1 [Compound 334] | 0 | 0 | 0 | 0 | 0 | 0 | 0 | 0 | 0 | 0 | 0 | 0 | 0 | 0 | 0 | 0 | 0 | 0 | 0 | 0 | Plant response rating, Blackgrass (blackgrass; [12]): 0; Plant response rating, Blackgrass (blackgrass; [7]): 0; Plant response rating, Wild oats (wild oat; [12]): 0; Plant response rating, Wild oats (wild oat; [7]): 0; Rice plant response rating (rice; [8]): 0; S. Flatsedge plant response rating (smallflower flatsedge; [8]): 0; Barnyardgrass plant response rating (bamyardgrass; [8]): 0
5 | Cc1c(-n2c(=O)on(C(=O)N(c3ccc(Cl)cc3)C(C)C)c2=O)ccc2ccccc12 [Compound 336] | 0 | 0 | 0 | 0 | 0 | 0 | 0 | 0 | 0 | 0 | 0 | 0 | 0 | 0 | 0 | 0 | 0 | 0 | 0 | 0 | Plant response rating, Blackgrass (blackgrass; [12]): 0; Plant response rating, Blackgrass (blackgrass; [7]): 0; Plant response rating, Wild oats (wild oat; [12]): 0; Plant response rating, Wild oats (wild oat; [7]): 0; Rice plant response rating (rice; [8]): 0; S. Flatsedge plant response rating (smallflower flatsedge; [8]): 0; Barnyardgrass plant response rating (bamyardgrass; [8]): 0
6 | Cc1c(-n2c(=O)on(C(=O)N(c3ccccc3)C(C)C)c2=O)ccc2ccccc12 [Compound 344] | – | 0 | 0 | 0 | – | 0 | – | 0 | 0 | 0 | – | – | – | – | – | – | – | – | – | – | Plant response rating, Blackgrass (blackgrass; [12]): 0; Plant response rating, Blackgrass (blackgrass; [14]): 0; Blackgrass plant response rating (blackgrass; [15]): 0; Plant response rating, Blackgrass (blackgrass; [7]): 0; Plant response rating, Wild oats (wild oat; [12]): 0; Plant response rating, Wild oats (wild oat; [14]): 0; Wild oats plant response rating (wild oat; [15]): 0; Plant response rating, Wild oats (wild oat; [7]): 0; Plant response rating, Rice (rice; [16]): 0; Rice plant response rating (rice; [17]): 0; Plant response rating, Rice (rice; [18]): 0; Plant response rating, S. Flatsedge (smallflower flatsedge; [16]): 0; S. Flatsedge plant response rating (smallflower flatsedge; [17]): 0; Plant response rating, S. Flatsedge (smallflower flatsedge; [18]): 0; Plant response rating, Barnyardgrass (bamyardgrass; [16]): 0; Barnyardgrass plant response rating (bamyardgrass; [17]): 0; Plant response rating, Barnyardgrass (bamyardgrass; Rate 250 g/ha, Postemergence (flood test species), scale of 0 to 10 where 0 is no effect and 10 is complete control): 0; Plant response rating, Barnyardgrass (bamyardgrass; [18]): 0

From US6737383B1, “Herbicidal oxadiazolidines” (priority 1999, dated 2004)
